Measurements from patent US20260256792A1, “TREATMENT OF CHRONIC SPONTANEOUS URTICARIA BY ADMINISTERING (R)-2-[3-[4-AMINO-3-(2-FLUORO-4-PHENOXY-PHENYL)PYRAZOLO[3,4-D]PYRIMIDIN-1-YL]PIPERIDINE-1-CARBONYL]-4-METHYL-4-[4-(OXETAN-3-YL)PIPERAZIN-1-YL]PENT-2-ENENITRILE” (priority 2023, published 2026).

System: moderate-to-severe chronic spontaneous urticaria (CSU)
Assay: Phase 2 CSU study: urticaria activity score over 7 days (UAS7)
Assay type: in vivo, human
Details: for Change from Baseline in UAS7 at Week 12: Mean (SD) / Change from Baseline in UAS7 at Week 12: LS Mean Diff vs. placebo (95% CI) / Change from Baseline in UAS7 at Week 12: LS Mean (SE): Omalizumab-Naïve; for Imputed non-responder n (%), UAS7 = 0 / Imputed non-responder n (%), UAS7 ≤6 / Non-responder n (%), UAS7 = 0 / Non-responder n (%), UAS7 ≤6 / OR for rilzabrutinib vs. placebo, UAS7 = 0 / OR for rilzabrutinib vs. placebo, UAS7 ≤6 / RRD (%) for rilzabrutinib vs. placebo, UAS7 = 0 / RRD (%) for rilzabrutinib vs. placebo, UAS7 ≤6 / Responder n (%), UAS7 = 0 / Responder n (%), UAS7 ≤6: Omalizumab-naïve
Excerpt: The study comprises a 12 week, randomized, double-blind, placebo-controlled, multi-center, dose-ranging efficacy and safety phase, followed by a 40 week open label extension (OLE) phase (see FIG. 1). The study consists of three phases and an optional OLE phase. […] Clinically, CSU is characterized by the spontaneous and recurrent appearance of pruritic hives. The proposed primary endpoints were the UAS7 at Week 12 in EU and EU reference countries and the ISS7 in the US. Regardless of where a participant was from, all assessments were the same. The UAS7 score is a composite score containing both the HSS7 and the ISS7. This allowed a global assessment of the two key components of urticaria: hives and itch. […] The UAS is a validated PRO measure. […] The daily UAS scores range from 0 to 6 point/day. […] Patients were to complete the UAS using the e-diary. […] The following secondary endpoints were to be analyzed using the same approach as for the primary endpoint: • Change from baseline in UAS7 at Week 4 • Change from baseline in UAS7 at Week 12 (for US and US reference countries) • Change from baseline in ISS7 at Week 12 (except US and US reference countries) • Change from baseline in HSS7 at Week 12 The following responder secondary endpoints were to be analyzed using the Cochran-Mantel-Haenszel test adjusted by region: • Proportion of participants with UAS7<6 at Week 12 • Proportion of participants with UAS7=0 at Week 12 Participants who received selected prohibited medications and/or rescue medications were to be considered as non-responders for time points after the medication usage. For other participants, all available data including those collected during the off-treatment period were to be used to determine the responder/non-responder status. Missing data were to be considered as non-responders.

[1] = Region Latin America, 400 mg TID
[2] = Region Western Countries, 400 mg BID
[3] = Region Western Countries, 400 mg QPM
[4] = Region Western Countries, 400 mg TID

For `CC(C)(C=C(C#N)C(=O)N1CCC[C@@H](n2nc(-c3ccc(Oc4ccccc4)cc3F)c3c(N)ncnc32)C1)N1CCN(C2COC2)CC1` [rilzabrutinib, (R)-2-[3-[4-amino-3-(2-fluoro-4-phenoxy-phenyl)pyrazolo[3,4-d]pyrimidin-1-yl]piperidine-1-carbonyl]-4-methyl-4-[4-(oxetan-3-yl)piperazin-1-yl]pent-2-enenitrile], the “Change from Baseline in UAS7 at Week 12: Mean (SD)” value (shortened to “Change from Baseline in UAS7 … (SD)”) (Region Latin America, 400 mg QPM) was −13.28 (10.78), the “Change from Baseline in UAS7 at Week 12: LS Mean Diff vs. placebo (95% CI)” value [1] was 0.38 (−10.12, 10.88) and the “Change from Baseline in UAS7 … (SD)” value [1] was −14.07 (12.07). The “Change from Baseline in UAS7 at Week 12: LS Mean (SE)” value (shortened to “Change from Baseline in UAS7 … (SE)”) [2] was −20.19 (3.23), the “Change from Baseline in UAS7 at Week 12: LS Mean Diff vs. placebo (95% CI)” value [2] was −12.21 (−21.37, −3.06) and the “Change from Baseline in UAS7 … (SD)” value [2] was −20.62 (10.65). For the same molecule, the “Change from Baseline in UAS7 … (SE)” value [3] was −8.74 (4.03), the “Change from Baseline in UAS7 … (SD)” value [3] was −10.70 (8.61) and the “Change from Baseline in UAS7 … (SE)” value [4] was −19.49 (3.03). For the same molecule, the “Change from Baseline in UAS7 … (SD)” value [4] was −23.13 (10.61), the “Imputed non-responder n (%), UAS7 = 0” value (400 mg BID, Week 1) was 0 n (%) and the “Imputed non-responder n (%), UAS7 ≤6” value (400 mg BID, Week 1) was 0 n (%). The “Non-responder n (%), UAS7 = 0” value (400 mg BID, Week 1) was 32 (91.4) n (%), the “Non-responder n (%), UAS7 ≤6” value (400 mg BID, Week 1) was 29 (82.9) n (%) and the “OR for rilzabrutinib vs. placebo, UAS7 = 0” value (400 mg BID, Week 1) was 3.242. The “OR for rilzabrutinib vs. placebo, UAS7 ≤6” value (400 mg BID, Week 1) was 3.183, the “RRD (%) for rilzabrutinib vs. placebo, UAS7 = 0” value (“RRD (%) … UAS7 = 0” for short) (400 mg BID, Week 1) was 5.6 % and the “RRD (%) for rilzabrutinib vs. placebo, UAS7 ≤6” value (“RRD (%) … UAS7 ≤6” for short) (400 mg BID, Week 1) was 9.9 %. The “Responder n (%), UAS7 = 0” value (400 mg BID, Week 1) was 3 (8.6) n (%), the “Responder n (%), UAS7 ≤6” value (400 mg BID, Week 1) was 6 (17.1) n (%) and the “Imputed non-responder n (%), UAS7 = 0” value (400 mg BID, Week 2) was 1 (2.9) n (%). The “Imputed non-responder n (%), UAS7 ≤6” value (400 mg BID, Week 2) was 1 (2.9) n (%), the “Non-responder n (%), UAS7 = 0” value (400 mg BID, Week 2) was 33 (94.3) n (%) and the “Non-responder n (%), UAS7 ≤6” value (400 mg BID, Week 2) was 31 (88.6) n (%). The “OR for rilzabrutinib vs. placebo, UAS7 = 0” value (400 mg BID, Week 2) was 2.024, the “OR for rilzabrutinib vs. placebo, UAS7 ≤6” value (400 mg BID, Week 2) was 1.917 and the “RRD (%) … UAS7 = 0” value (400 mg BID, Week 2) was 2.5 %. The “RRD (%) … UAS7 ≤6” value (400 mg BID, Week 2) was 4.4 %, the “Responder n (%), UAS7 = 0” value (400 mg BID, Week 2) was 2 (5.7) n (%) and the “Responder n (%), UAS7 ≤6” value (400 mg BID, Week 2) was 4 (11.4) n (%). The “Imputed non-responder n (%), UAS7 = 0” value (400 mg BID, Week 3) was 0 n (%), the “Imputed non-responder n (%), UAS7 ≤6” value (400 mg BID, Week 3) was 0 n (%) and the “Non-responder n (%), UAS7 = 0” value (400 mg BID, Week 3) was 32 (91.4) n (%). The “Non-responder n (%), UAS7 ≤6” value (400 mg BID, Week 3) was 27 (77.1) n (%), the “OR for rilzabrutinib vs. placebo, UAS7 = 0” value (400 mg BID, Week 3) was 3.036 and the “OR for rilzabrutinib vs. placebo, UAS7 ≤6” value (400 mg BID, Week 3) was 2.894. For the same molecule, the “RRD (%) … UAS7 = 0” value (400 mg BID, Week 3) was 5.0 %, the “RRD (%) … UAS7 ≤6” value (400 mg BID, Week 3) was 13.3 % and the “Responder n (%), UAS7 = 0” value (400 mg BID, Week 3) was 3 (8.6) n (%). For the same molecule, the “Responder n (%), UAS7 ≤6” value (400 mg BID, Week 3) was 8 (22.9) n (%), the “Imputed non-responder n (%), UAS7 = 0” value (400 mg BID, Week 4) was 2 (5.7) n (%) and the “Imputed non-responder n (%), UAS7 ≤6” value (400 mg BID, Week 4) was 2 (5.7) n (%). The “Non-responder n (%), UAS7 = 0” value (400 mg BID, Week 4) was 32 (91.4) n (%), the “Non-responder n (%), UAS7 ≤6” value (400 mg BID, Week 4) was 25 (71.4) n (%) and the “OR for rilzabrutinib vs. placebo, UAS7 = 0” value (400 mg BID, Week 4) was 1.372. For the same molecule, the “OR for rilzabrutinib vs. placebo, UAS7 ≤6” value (400 mg BID, Week 4) was 2.950, the “RRD (%) … UAS7 = 0” value (400 mg BID, Week 4) was 1.9 % and the “RRD (%) … UAS7 ≤6” value (400 mg BID, Week 4) was 15.8 %. The “Responder n (%), UAS7 = 0” value (400 mg BID, Week 4) was 3 (8.6) n (%), the “Responder n (%), UAS7 ≤6” value (400 mg BID, Week 4) was 10 (28.6) n (%) and the “Imputed non-responder n (%), UAS7 = 0” value (400 mg BID, Week 5) was 2 (5.7) n (%). For the same molecule, the “Imputed non-responder n (%), UAS7 ≤6” value (400 mg BID, Week 5) was 2 (5.7) n (%), the “Non-responder n (%), UAS7 = 0” value (400 mg BID, Week 5) was 31 (88.6) n (%) and the “Non-responder n (%), UAS7 ≤6” value (400 mg BID, Week 5) was 25 (71.4) n (%). For the same molecule, the “OR for rilzabrutinib vs. placebo, UAS7 = 0” value (400 mg BID, Week 5) was 4.254, the “OR for rilzabrutinib vs. placebo, UAS7 ≤6” value (400 mg BID, Week 5) was 6.525 and the “RRD (%) … UAS7 = 0” value (400 mg BID, Week 5) was 8.1 %. The “RRD (%) … UAS7 ≤6” value (400 mg BID, Week 5) was 21.1 %, the “Responder n (%), UAS7 = 0” value (400 mg BID, Week 5) was 4 (11.4) n (%) and the “Responder n (%), UAS7 ≤6” value (400 mg BID, Week 5) was 10 (28.6) n (%). The “Imputed non-responder n (%), UAS7 = 0” value (400 mg BID, Week 6) was 2 (5.7) n (%), the “Imputed non-responder n (%), UAS7 ≤6” value (400 mg BID, Week 6) was 2 (5.7) n (%) and the “Non-responder n (%), UAS7 = 0” value (400 mg BID, Week 6) was 31 (88.6) n (%). For the same molecule, the “Non-responder n (%), UAS7 ≤6” value (400 mg BID, Week 6) was 26 (74.3) n (%), the “OR for rilzabrutinib vs. placebo, UAS7 = 0” value (400 mg BID, Week 6) was 4.048 and the “OR for rilzabrutinib vs. placebo, UAS7 ≤6” value (400 mg BID, Week 6) was 1.743.
